Data on 9 molecules can be found in patent publication US8846669B2, “Oxazolidinone derivative and medical composition containing same” (Legochem Biosciences, Inc., priority 2011, dated 2014).

SMILES strings stand for the structures. In brackets after ≈: the same amount, converted by molar mass. Where two headings read alike, the source gives them in different places.

Experiment in all cases: In vitro antibacterial activity, broth microdilution MIC90
Common to all, as to type: cell-based
On the technique in general: Broth dilution looks for growth in wells or tubes with falling amounts of substance.

The test system of assay [1] is Moraxella catarrhalis. Conditions: Moraxella catarrhalis. Put shortly: (§1)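 MIC90 read out by broth microdilution following CLSI standards. Test material ranged from 0.063 to 128 μg/mL final, DMSO at 2.5% (V/V).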
The subject of assay [2] is Linezolid and Vancomycin Resistant Enterococcus faecalis. Conditions: Enterococcus faecalis. A digest of the protocol:
as §1

For assay [3], the system named is Enterococcus faecium. Conditions: Enterococcus faecium. Put shortly: as §1
For assay [4], the system named is Enterococcus faecalis. Conditions: Enterococcus faecalis. A digest of the protocol: as §1
For assay [5], the system named is Vancomycin Resistant Enterococcus faecalis. Conditions: Enterococcus faecalis. A digest of the protocol: as §1
Assay [6] has as its system Vancomycin Resistant Enterococcus faecium. Conditions: Enterococcus faecium. Put shortly: as §1
Assay [7] has as its system Linezolid and Vancomycin Resistant Enterococcus faecium (strain 10). Conditions: Enterococcus faecium. A digest of the protocol: as §1
Assay [8] relates to Staphylococcus epidermidis. The following applies: Staphylococcus epidermidis. A digest of the protocol:
as §1

Assay [9] concerns Staphylococcus aureus. Conditions: Staphylococcus aureus. A digest of the protocol:
as §1

The subject of assay [10] is Methicillin Resistant Staphylococcus epidermidis. Conditions: Staphylococcus epidermidis. Put shortly:
as §1

The test system of assay [11] is Linezolid and Vancomycin Resistant Enterococcus faecium (strain 11). Conditions: Enterococcus faecium. Put shortly:
as §1

Assay [12] concerns Methicillin Resistant Staphylococcus aureus. The following applies: Staphylococcus aureus. A digest of the protocol:
as §1

Setting [13] is: strain 12, M. catarrhalis, read-out: MIC90.
Where [14] appears, read: strain 7, E. faecalis VanA LR, read-out: MIC90.
The mark [15] stands for this setting: strain 8, E. faecium, read-out: MIC90.
Setting [16] is: strain 5, E. faecalis, read-out: MIC90.
Setting [17] is: strain 6, E. faecalis VanA, read-out: MIC90.
The mark [18] stands for this setting: strain 9, E. faecium VanA, read-out: MIC90.
[19] abbreviates: strain 10, E. faecium VanA LR, read-out: MIC90.
Setting [20] is: strain 3, S. epidermidis, read-out: MIC90.
Where [21] appears, read: strain 1, S. aureus, read-out: MIC90.
Setting [22] is: strain 4, S. epidermidis MR, read-out: MIC90.
Where [23] appears, read: strain 11, E. faecium VanA LR, read-out: MIC90.
[24] abbreviates: strain 2, S. aureus MR, read-out: MIC90.

For orientation: MIC90 means the lowest concentration that inhibits either 90% of growth or 90% of the strains tested, depending on the study. Take `CN1CCON=C1c1ccc(-c2ccc(N3C[C@H](CO)OC3=O)cc2F)cn1` [Compound 71]: the MIC90 in [1] (setting [13]) was 8 µg/mL (≈ 20.7 µM); in [2] (setting [14]) it was 16 µg/mL (≈ 41.4 µM); in assay [3] (setting [15]) it was 2 µg/mL (≈ 5.18 µM); in assay [4] (setting [16]) it was 4 µg/mL (≈ 10.4 µM); in [5] (setting [17]), 2 µg/mL (≈ 5.18 µM); in assay [6] (setting [18]), 2 µg/mL (≈ 5.18 µM). In addition, the MIC90 in assay [7] (setting [19]) turned out to be 8 µg/mL (≈ 20.7 µM); in assay [8] (setting [20]), 2 µg/mL (≈ 5.18 µM); in assay [9] (setting [21]) it was 2 µg/mL (≈ 5.18 µM); in [10] (setting [22]) it was 4 µg/mL (≈ 10.4 µM); in assay [11] (setting [23]) it was 16 µg/mL (≈ 41.4 µM); in assay [12] (setting [24]), 4 µg/mL (≈ 10.4 µM).
Consider `COC(=O)NC[C@H]1CN(c2ccc(-c3ccc(N4C=NOCC4)nc3)c(F)c2)C(=O)O1` [Compound 59], for which the MIC90 in assay [1] (setting [13]) is 2 µg/mL (≈ 4.66 µM); in [2] (setting [14]), 4 µg/mL (≈ 9.32 µM); in assay [3] (setting [15]), 0.25 µg/mL (≈ 0.582 µM); in assay [4] (setting [16]) it was 0.5 µg/mL (≈ 1.16 µM); in assay [5] (setting [17]), 0.5 µg/mL (≈ 1.16 µM); in [6] (setting [18]), 0.25 µg/mL (≈ 0.582 µM). The MIC90 in [7] (setting [19]) turned out to be 4 µg/mL (≈ 9.32 µM); in assay [8] (setting [20]), 0.25 µg/mL (≈ 0.582 µM); in assay [9] (setting [21]), 0.25 µg/mL (≈ 0.582 µM); in [10] (setting [22]) it was 1 µg/mL (≈ 2.33 µM); in assay [11] (setting [23]), 4 µg/mL (≈ 9.32 µM); in assay [12] (setting [24]) it was 0.5 µg/mL (≈ 1.16 µM).
Take `CC(=O)NC[C@H]1CN(c2ccc(-c3ccc(N4C=NN(C(=O)COC(C)=O)CC4)nc3)c(F)c2)C(=O)O1` [Compound 12]: the MIC90 in assay [1] was 0.5 µg/mL (≈ 0.976 µM); in assay [2], 1 µg/mL (≈ 1.95 µM); in assay [3], 0.063 µg/mL (≈ 0.123 µM); in [4], 0.125 µg/mL (≈ 0.244 µM); in assay [5], 0.25 µg/mL (≈ 0.488 µM); in assay [6], 0.25 µg/mL (≈ 0.488 µM). In addition, the MIC90 in [7] is 1 µg/mL (≈ 1.95 µM); in assay [8] it was 0.125 µg/mL (≈ 0.244 µM); in [9] it was 0.125 µg/mL (≈ 0.244 µM); in [10] it was 0.25 µg/mL (≈ 0.488 µM); in assay [11], 1 µg/mL (≈ 1.95 µM); in assay [12], 0.25 µg/mL (≈ 0.488 µM).
Consider `CC(=O)NC[C@H]1CN(c2ccc(-c3ccc(N4CCON=C4C)nc3)c(F)c2)C(=O)O1` [Compound 62], for which the MIC90 in [1] (setting [13]) stood at 4 µg/mL (≈ 9.36 µM); in assay [2] (setting [14]), 4 µg/mL (≈ 9.36 µM); in assay [3] (setting [15]) it was 0.5 µg/mL (≈ 1.17 µM); in assay [4] (setting [16]), 1 µg/mL (≈ 2.34 µM); in assay [5] (setting [17]), 1 µg/mL (≈ 2.34 µM); in [6] (setting [18]) it was 1 µg/mL (≈ 2.34 µM). The MIC90 stood at 8 µg/mL (≈ 18.7 µM) in assay [7] (setting [19]); 0.5 µg/mL (≈ 1.17 µM) in assay [8] (setting [20]); 0.5 µg/mL (≈ 1.17 µM) in assay [9] (setting [21]); 4 µg/mL (≈ 9.36 µM) in assay [10] (setting [22]); 4 µg/mL (≈ 9.36 µM) in assay [11] (setting [23]); 2 µg/mL (≈ 4.68 µM) in assay [12] (setting [24]).
For `CC(=O)NC[C@H]1CN(c2ccc(N3CCOCC3)c(F)c2)C(=O)O1` [LZD, Linezolid, reference compound], the MIC90 in assay [1] (setting [13]) came to 8 µg/mL (≈ 23.7 µM); in [2] (setting [14]) it was 32 µg/mL (≈ 94.9 µM); in assay [3] (setting [15]), 1 µg/mL (≈ 2.96 µM); in assay [4] (setting [16]) it was 2 µg/mL (≈ 5.93 µM); in assay [5] (setting [17]), 2 µg/mL (≈ 5.93 µM); in assay [6] (setting [18]), 2 µg/mL (≈ 5.93 µM). Moreover, the MIC90 is 32 µg/mL (≈ 94.9 µM) in assay [7] (setting [19]); 1 µg/mL (≈ 2.96 µM) in [8] (setting [20]); 1 µg/mL (≈ 2.96 µM) in assay [9] (setting [21]); 2 µg/mL (≈ 5.93 µM) in [10] (setting [22]); 64 µg/mL (≈ 190 µM) in assay [11] (setting [23]); 2 µg/mL (≈ 5.93 µM) in [12] (setting [24]).
As to `CC(=O)NC[C@H]1CN(c2ccc(-c3ccc(C4=NOCCN4C)nc3)c(F)c2)C(=O)O1` [Compound 69], the MIC90 in assay [1] (setting [13]) stood at 8 µg/mL (≈ 18.7 µM); in assay [2] (setting [14]), 2 µg/mL (≈ 4.68 µM); in assay [3] (setting [15]) it was 1 µg/mL (≈ 2.34 µM); in assay [4] (setting [16]), 1 µg/mL (≈ 2.34 µM); in [5] (setting [17]) it was 1 µg/mL (≈ 2.34 µM); in assay [6] (setting [18]), 1 µg/mL (≈ 2.34 µM). Also, the MIC90 in assay [7] (setting [19]) amounted to 4 µg/mL (≈ 9.36 µM); in [8] (setting [20]), 0.5 µg/mL (≈ 1.17 µM); in [9] (setting [21]), 0.5 µg/mL (≈ 1.17 µM); in assay [10] (setting [22]), 2 µg/mL (≈ 4.68 µM); in assay [11] (setting [23]) it was 4 µg/mL (≈ 9.36 µM); in assay [12] (setting [24]), 2 µg/mL (≈ 4.68 µM).
On to `CC(=O)NC[C@H]1CN(c2ccc(-c3ccc(N4C=NN(C(=O)COC(=O)CCC(=O)O)CC4)nc3)c(F)c2)C(=O)O1` [Compound 13], for which the MIC90 in [1] (setting [13]) is 2 µg/mL (≈ 3.51 µM); in assay [2] (setting [14]) it was 2 µg/mL (≈ 3.51 µM); in assay [3] (setting [15]), 2 µg/mL (≈ 3.51 µM); in assay [4] (setting [16]), 1 µg/mL (≈ 1.75 µM); in [5] (setting [17]), 1 µg/mL (≈ 1.75 µM); in [6] (setting [18]), 1 µg/mL (≈ 1.75 µM). For the same molecule, the MIC90 in assay [7] (setting [19]) stood at 2 µg/mL (≈ 3.51 µM); in [8] (setting [20]), 1 µg/mL (≈ 1.75 µM); in [9] (setting [21]) it was 1 µg/mL (≈ 1.75 µM); in assay [10] (setting [22]), 2 µg/mL (≈ 3.51 µM); in assay [11] (setting [23]), 2 µg/mL (≈ 3.51 µM); in assay [12] (setting [24]), 2 µg/mL (≈ 3.51 µM).
On to `O=C1O[C@@H](Cn2ccnn2)CN1c1ccc(-c2ccc(C3=NOCCN3)nc2)c(F)c1` [Compound 66], for which the MIC90 in [1] (setting [13]) was 1 µg/mL (≈ 2.36 µM); in [2] (setting [14]) it was 1 µg/mL (≈ 2.36 µM); in assay [3] (setting [15]), 0.125 µg/mL (≈ 0.295 µM); in [4] (setting [16]), 0.25 µg/mL (≈ 0.59 µM); in [5] (setting [17]), 0.25 µg/mL (≈ 0.59 µM); in assay [6] (setting [18]), 0.25 µg/mL (≈ 0.59 µM). Besides, the MIC90 is 1 µg/mL (≈ 2.36 µM) in [7] (setting [19]); 0.25 µg/mL (≈ 0.59 µM) in [8] (setting [20]); 0.125 µg/mL (≈ 0.295 µM) in assay [9] (setting [21]); 0.5 µg/mL (≈ 1.18 µM) in [10] (setting [22]); 2 µg/mL (≈ 4.72 µM) in [11] (setting [23]); 0.5 µg/mL (≈ 1.18 µM) in [12] (setting [24]).
For `CN1CCN(c2ccc(-c3ccc(N4C[C@H](Cn5ccnn5)OC4=O)cc3F)cn2)C=N1` [Compound 31], the MIC90 in [1] amounted to 2 µg/mL (≈ 4.58 µM); in [2], 2 µg/mL (≈ 4.58 µM); in assay [3], 0.25 µg/mL (≈ 0.573 µM); in assay [4], 0.5 µg/mL (≈ 1.15 µM); in [5] it was 0.5 µg/mL (≈ 1.15 µM); in assay [6] it was 0.25 µg/mL (≈ 0.573 µM). Also, the MIC90 stood at 1 µg/mL (≈ 2.29 µM) in [7]; 0.25 µg/mL (≈ 0.573 µM) in [8]; 0.25 µg/mL (≈ 0.573 µM) in assay [9]; 1 µg/mL (≈ 2.29 µM) in assay [10]; 2 µg/mL (≈ 4.58 µM) in assay [11]; 1 µg/mL (≈ 2.29 µM) in assay [12].
